How the values were obtained:
[1] = cited from earlier work
[2] = rodents; cited from earlier work
[3] = after one week of dosing; effect blocked by flumazenil; cited from earlier work
[4] = preclinical data; cited from earlier work
GABAA receptor [5] = conditions: cited from earlier work
GABAA receptor [6] = conditions: cited from earlier work; for GABAA receptor activity in cells: cell experiments
SSADH = target: T1, SSADH (Homo sapiens, UniProt P51649); conditions: cited from earlier work
T1 sequence (P51649 48-535): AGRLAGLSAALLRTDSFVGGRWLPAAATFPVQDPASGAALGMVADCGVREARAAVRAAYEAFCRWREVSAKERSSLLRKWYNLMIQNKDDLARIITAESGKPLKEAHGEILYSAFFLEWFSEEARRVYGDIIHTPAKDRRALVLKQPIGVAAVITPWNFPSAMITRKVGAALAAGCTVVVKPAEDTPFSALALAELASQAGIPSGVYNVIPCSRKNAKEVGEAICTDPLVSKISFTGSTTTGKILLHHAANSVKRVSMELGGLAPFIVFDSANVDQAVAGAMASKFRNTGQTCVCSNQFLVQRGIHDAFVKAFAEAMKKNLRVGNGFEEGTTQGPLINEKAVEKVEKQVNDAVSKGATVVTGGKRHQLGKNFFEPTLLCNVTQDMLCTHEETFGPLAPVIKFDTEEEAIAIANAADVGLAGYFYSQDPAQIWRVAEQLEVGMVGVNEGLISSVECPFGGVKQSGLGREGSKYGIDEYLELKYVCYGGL

[7] = Clinical study 1: modified Hamilton Anxiety Rating Scale; format: in vivo, humans; conditions: responders n=10; placebo 15
Source text: FIGS. 8A-8C are graphs showing the CBD formulation Decreasing Anxiety. At the end of each treatment period, study participants completed a clinically-validated survey entitled the Hamilton Anxiety Rating Scale^29. Each item in this rating scale is scored on a scale of 0 (not present) to 4 (severe), with a total score range of 0-53, where <14 indicates mild severity, 15-21 mild to moderate severity, and 22-27 moderate to severe. Based on this survey, the CBD formulation decreases anxiety in participants DR13 (FIG. 8A), DR16 (FIG. 8B), and DR21 (FIG. 8C) relative to the placebo control or CBD alone.
FIG. 9A is a graph showing the CBD formulation decreases Anxiety in “Responders”. […] Each item in this rating scale is scored on a scale of 0 (not present) to 4 (severe), with a total score range of 0-53, where <14 indicates mild severity, 15-21 mild to moderate severity, and 22-27 moderate to severe. […]
To measure the effects of the CBD formulation on anxiety, study participants completed a modified version of the Hamilton Anxiety Rating Scale, one of the first rating scales developed to measure the severity of anxiety symptoms that is widely used in clinical and research settings^29. […] Each item is scored on a scale of 0 (not present) to 4 (severe), with a total score range of 0-53, where <14 indicates mild severity, 15-21 mild to moderate severity, and 22-27 moderate to severe.

[8] = Clinical study 1 (Le Rêve 1.0): sleep physiology by Whoop sleep-tracking wristband, double-blind placebo-controlled crossover; format: in vivo, humans; conditions: participant DR11; 7 days per treatment; relative to placebo
Method: Two independent clinical studies were completed to determine the effects of the CBD formulation on the structure and function of sleep physiology. Each of these independent studies were performed as a double-blind, placebo-controlled, randomized, crossover investigational study to determine if the CBD formulation influences sleep physiology in humans.
Primary sleep physiology data was collected from study participants in a completely unbiased manner from a non-invasive sleep-tracking wristband, called “Whoop” (https://www.whoop.com), which electronically collects and transmits sleep data from study participants in the comfort of their own beds. The wristband collects hundreds of data points per second from a 3-axis accelerometer, 3-axis gyroscope, and heart rate sensor. The wristband can accurately measure latency to fall asleep, total sleep time, sleep fragmentation, as well as the time spent in each sleep stage [Light, Slow Wave (Deep), Rapid Eye Movement (REM), and Awake]. The wristband also collects data using photoplethysmography (PPG), a technique that involves measuring blood flow by assessing superficial changes in blood volume. Heart rate, heart rate variability, and respiratory rate, can all be derived from PPG data, and all of these metrics are used in Whoop's sleep detection and staging algorithms. […]

[9] = Clinical study 1: sleep survey / Participant Global Impression (PGI) questionnaire; format: in vivo, humans; conditions: participant DR11; sleep survey at end of treatment period
Source text: FIG. 7 is a graph showing the Study Participants Perceived That the CBD formulation Helped Them Sleep Better [p=0.13; (t test). n=23 responders per treatment group. Values are means±SEM]. At the end of each treatment period, study participants used a PGI questionnaire to determine if the treatment influenced their sleep relative to a baseline period before the treatments were initiated. Scoring Matrix: 1=Treatment Helped; 2-No Effect of Treatment; 3-Treatment Worsened.
In the first study, participants (N=23) were randomized to take a placebo control or the CBD formulation stated as Defined CBD in the Figures (˜300 mg CBD, ˜8 mg terpenes including linalool, myrcene, phytol, limonene, α-terpinene, α-terpineol, α-pinene, and β-caryophyllene) once daily, one hour before bedtime, for seven consecutive nights. […] Indeed, on average, over seven days of treatment, participant DR11 benefitted from nearly an extra hour of restorative sleep each night relative to the placebo control (FIG. 2B). Furthermore, participant DR11 was also able to perceive an improvement in their sleep quality and duration relative to the placebo control when they responded to a clinically validated sleep survey at the end of the treatment periods (as shown in Table 1).
At the end of each treatment period in the clinical studies, participants completed a modified version of a clinically validated questionnaire entitled the Participant Global Impression (PGI)^28. PGI assessments are based on the participant's global perception of the effects of treatment on sleep during each treatment period, as compared to their sleep during the baseline period of the study. […] Nevertheless, based on post-hoc power analysis performed, this effect would achieve statistical significance with a larger sample number.

[10] = given before simulation public speaking test; vs placebo; cited from earlier work

Compound: CCCCCc1cc(O)c2c(c1)OC(C)(C)[C@@H]1CCC(C)=C[C@@H]21 [THC, tetrahydrocannabinol]
- anxiety-promoting properties in clinical studies ([1]; in vivo): anxiogenic

Compound: C=C(C)C1CC=C(C)CC1 (centres unmarked) [limonene, 1-methyl-4-prop-1-en-2-ylcyclohexene]
- locomotor activity [2]: reduced
- motor coordination [2]: impaired
- sleep [2]: induced sleep
- brain GABA levels [3]: increased
- sedation in animals [4]: induce sedation

Compound: C=CC(C)(O)CCC=C(C)C (centres unmarked) [linalool]
- binding to the GABA site or the benzodiazepine site of the GABAA receptor (GABAA receptor [5]): does not bind
- sleep [2]: increases sleep
- sedation in animals [4]: induce sedation
- GABAA receptor activity in cells (GABAA receptor [6]): significantly augment

Compound: C=CC(=C)CCC=C(C)C [myrcene, 7-methyl-3-methylene-1,6-octadiene]
- sedation in animals [4]: induce sedation
- GABAA receptor activity in cells (GABAA receptor [6]): increased

Compound: C/C(=C\CO)CCC[C@H](C)CCC[C@H](C)CCCC(C)C [phytol, (2E,7R,11R)-3,7,11,15-Tetramethylhexadec-2-en-1-ol]
- sedative effects blocked by flumazenil [2]: blocked
- sedation in animals [4]: induce sedation
- inhibition of SSADH (SSADH): inhibiting

Compound: CC1=CCC2CC1C2(C)C (stereo not drawn) [α-pinene, 2,6,6-trimethylbicyclo[3.1.1]hept-2-ene]
- sedative effects blocked by flumazenil [2]: blocked
- sedation in animals [4]: induce sedation
- GABAA receptor activity in cells (GABAA receptor [6]): increased
- effect in neurons blocked by flumazenil (GABAA receptor [6]; neurons, flumazenil (benzodiazepine site antagonist)): fully blocked

Compound: CC1=CC=C(C(C)C)CC1 [α-terpinene, 1-methyl-4-propan-2-ylcyclohexa-1,3-diene]
- sedation in animals [4]: induce sedation

Compound: CC1=CCC(C(C)(C)O)CC1 (stereo not drawn) [α-terpineol, 2-(4-methylcyclohex-3-en-1-yl)propan-2-ol]
- sedation in animals [4]: induce sedation
- GABAA receptor activity in cells (GABAA receptor [6]): increase

Compound: C=C1CC/C=C(\C)CC[C@@H]2[C@@H]1CC2(C)C [β-caryophyllene]
- locomotor activity [2]: did not affect
- motor coordination [2]: did not affect
- sleep [2]: mildly promote sleep
- sedation in animals [4]: induce sedation

Compound: cannabidiol [CBD alone]
- Hamilton Anxiety Rating Scale score [7]: 11
- increase in percentage of time spent in REM sleep [8]: about 4%
- increase in percentage of time spent in restorative sleep [8]: about 2%
- Decreased Sleep Onset [9]: No
- Improved Sleep [9]: No
- Lengthened Sleep Duration [9]: No
- block of the anxiogenic effects of THC ([1]; clinical studies): can be blocked
- anxiety, cognitive impairment and discomfort [10]: significantly reduced
- hyper-alertness in anticipatory speech [10]: significantly decreased

Source: patent publication US20240285656A1, “CANNABIDIOL (CBD) AND TERPENE F[…] INCREASES RESTORATIVE SLEEP IN HUMANS” (Defined Research, Inc., priority 2022, published 2024)
